Tests used:
[1] = tested on: Antikörperbildung gegen Schafserythrozyten (Plaquebildende Milzzellen); assay: Antibody formation against sheep erythrocytes (JERNE plaque test, IgM plaque-forming spleen cells) in X-irradiated, bone-marrow-transplanted mice; assay type: in vivo, AB/Bln.-Mäuse
From the text: (§1) Zum Nachweis der immunologischen Wirkungen wurden folgende Modelle verwendet: - "Kolonien - Bildung" ("Kolonien" - Bildungstest ) durch menschliche Knochenmarkzellen nach Kultivierung der Zellen mit dem menschlichen Granulocyten - Makrophagen - "Kolonien" - stimulierenden Faktor (hGM-CSF) und Spleninderivaten. - die Antikörperbildung gegen Schafserythrozyten ( Plaquebildende Milzzellen ) durch Ab/Bln.-Mäuse nach Röntgenbestrahlung (Tabelle 2).
Es wurden drei Monate alte AB/Bln.-Mäuse einmalig mit 800 cGy röntgenbestrahlt. Danach wurden die Tiere in drei Gruppen aufgeteilt und folgendermaßen weiterbehandelt: • Gruppe 1: Nach der Bestrahlung wurde den Tieren Knochenmarkzellen von Tieren des gleichen Inzuchtstammes transplantiert (Injektion von je 5 mal 10⁶ Knochenmarkzellen pro Tier). […] In differenten Zeitabständen nach der Bestrahlung und während der DAc-hSP5-Behandlung wurde mittels des JERNE-Plaque-Testes die Fähigkeit der Tiere untersucht, Antikörper zu bilden. • Gruppe 2: Gleiche Behandlung der Tiere wie in Gruppe 1, jedoch keine Therapie der Tiere mit DAc-hSP5. • Gruppe 3: Alleinige Röntgenbestrahlung der Tiere; keine Transplantation syngener Knochenmarkzellen, keine Therapie der Tiere mit DAc-hSP5.
Fünf Tage vor der Bestimmung der IgM Plaque-bildenden Milzzellen (Tage, angegeben in Tabelle 2) wurden die Tiere mit 5 x 10⁸ Schafserythrozyten immunisiert (intaperitoneale Applikation). Methodik: Eckert et.al., Biomed. Biochem. Acta, 1985, (44), 1239.

[2] = tested on: menschliche Knochenmarkzellen; assay: Colony formation test: human bone marrow cells cultured with hGM-CSF and splenin derivatives; assay type: cell-based; details: human bone marrow cells with hGM-CSF; Tab.1, Nr.6
From the text: as §1
Stimulierung des Wachstums und der Reifung von Knochenmarkstammzellen (in vitro)
Die Anzahl der gebildeten "Kolonien" ist dabei ein Maß für die mitotische bzw. differenzierende Wirkung der Faktoren auf die Knochenmarkzellen. Da Thymopentin in diesem Testsystem (Tab.1, Nr.6) keine Wirkung zeigte, ist anzunehmen, daß die immunstimulierende Wirkung von Timunox nicht über eine Wirkung auf Stammzellen des Knochenmarks zustande kommt.

Substance | Effekt auf die Antikörperbildung ([1]; 1 µg per animal i.p. three times weekly) | Effekt auf die Antikörperbildung ([1]; 2 µg per animal i.p. three times weekly) | Effekt auf die Antikörperbildung ([1]; 4 µg per animal i.p. three times weekly) | Effekt auf die Antikörperbildung ([1]; 8 µg per animal i.p. three times weekly) | Effekt auf die Antikörperbildung ([1]; 10 ug per animal i.p. three times weekly) | Effekt auf die Antikörperbildung ([1]; 20 µg per animal i.p. three times weekly) | Effekt auf die Antikörperbildung ([1]; 50 µg per animal i.p. three times weekly) | Antikörperbildung (IgM Plaque-bildende Milzzellen) ([1]; 800 cGy, syngeneic bone marrow transplant, 10 µg per animal i.p. three times weekly, Tabelle 2) | Wirkung im "Kolonien"-Bildungstest (Anzahl der gebildeten "Kolonien") [2]
(N^α-Acetyl)-arginyl-(N^ε-acetyl)-lysylalanylvalyltyrosin [DAc-hSP5] | nicht wirksam | nicht wirksam | nicht wirksam | suboptimal | optimalen Effekt | Effekt wie nach der von 10 ug | Effekt wie nach der von 10 ug | beschleunigt zu einer normalen Antikörperbildung befähigt | 
Thymopentin |  |  |  |  |  |  |  |  | keine Wirkung

From patent EP0410372A1, “Process for preparing human splenin derivatives” (BERLIN-CHEMIE AG, priority 1989, dated 1991)
